What is called Ki is the dissociation constant of the complex between target and ligand, obtained from inhibition or displacement. What is called EC50 is the midpoint of the concentration-response curve. In general, half-life refers to the time in which the quantity being followed falls by half. Read a low half-life as rapid decline. As a reminder, the clearance is a measure of how efficiently the substance is removed, as volume per time. In general, bioavailability refers to dose-corrected exposure relative to a reference, in per cent. The low end stands for poor availability, the high end for good availability.

This is an account of results in patent US8188135B2, “Compounds as cannabinoid receptor ligands” (priority 2008, dated 2012).

The target of one data set is T1, human CB2 receptors (Homo sapiens, UniProt P34972).
T1 construct: expressed in transfected cells; host or cells: HEK293
T1 sequence (P34972 whole entry): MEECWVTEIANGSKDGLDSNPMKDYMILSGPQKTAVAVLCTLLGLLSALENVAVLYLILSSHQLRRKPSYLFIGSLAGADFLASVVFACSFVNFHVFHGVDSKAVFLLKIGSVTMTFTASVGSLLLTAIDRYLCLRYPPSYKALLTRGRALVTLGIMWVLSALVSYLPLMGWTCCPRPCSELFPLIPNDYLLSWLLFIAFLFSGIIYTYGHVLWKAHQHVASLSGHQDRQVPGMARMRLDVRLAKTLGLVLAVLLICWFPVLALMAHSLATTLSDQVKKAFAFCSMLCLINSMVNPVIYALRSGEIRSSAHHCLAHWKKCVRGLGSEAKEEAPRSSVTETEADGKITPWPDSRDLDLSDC
Description: human CB2 radioligand binding assay ([3H]CP 55,940 competition). The settings on record: HEK293 membranes, 0.5 nM [3H]CP 55,940. The essentials:
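Membranes from HEK293 cells stably expressing human CB2 (5 μg protein/well) competed against 0.5 nM [3H]CP 55,940 with five concentrations of test ligand (0.01 nM to 10 μM), pH 7.4 Tris buffer with BSA, 90 min at 30 °C. Filtration and scintillation counting; nonspecific binding with 10 μM unlabeled CP 55,940.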

The next data set deals with T2, Rat CB1 (Rattus norvegicus, UniProt P20272).
T2 construct: expressed in transfected cells; host or cells: HEK
T2 sequence (P20272 whole entry): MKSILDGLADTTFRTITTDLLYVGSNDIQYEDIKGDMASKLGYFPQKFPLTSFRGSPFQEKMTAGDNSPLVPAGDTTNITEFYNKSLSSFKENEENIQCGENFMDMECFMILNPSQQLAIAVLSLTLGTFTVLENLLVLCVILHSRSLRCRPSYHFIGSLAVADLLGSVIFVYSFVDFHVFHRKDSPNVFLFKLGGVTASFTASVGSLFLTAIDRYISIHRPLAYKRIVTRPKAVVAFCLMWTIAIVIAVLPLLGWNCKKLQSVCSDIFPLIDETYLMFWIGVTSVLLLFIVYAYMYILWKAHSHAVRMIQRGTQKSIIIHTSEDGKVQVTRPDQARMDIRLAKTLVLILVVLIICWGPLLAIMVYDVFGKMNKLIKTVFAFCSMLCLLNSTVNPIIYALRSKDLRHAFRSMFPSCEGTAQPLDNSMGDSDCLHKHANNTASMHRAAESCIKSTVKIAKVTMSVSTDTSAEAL
Description: rat CB1 cyclase functional assay (HitHunter cAMP). As to conditions: HEK cells, forskolin 37 μM. It is filed as cell-based. How it is done: The cyclase functional assays were performed using the HitHunter™ cAMP assay kit from DiscoveRx (Fremont, Calif.) according to vendor's protocol. Briefly, HEK cells expressing CB2 or CB1 receptors (rat or human) were detached using cell dissociation buffer (Invitrogen, Carlsbad, Calif.), dispersed and placed in suspension at 10,000 cells per well in 96 well plates prior to the assay. Cell suspensions were incubated at 37° C. for 20 min with variable concentrations of test ligands and or 10 μM CP 55,940-positive control in the presence of a fixed concentration of forskolin (18 μM for rat CB2 and 37 μM for rat CB1) in Dulbescco's phosphate-buffered saline (Invitrogen, Carlsbad, Calif.) supplemented with bovine serum albumin (0.01% final concentration). The reactions were terminated by the addition of lysis buffer and the luminescence was detected following the procedure according to the manufacturer's instructions. EC50 values were calculated using sigmoidal dose-response curve fitting from Prism (GraphPad).

The nature of data set [1]: pharmacokinetic studies in rats. The settings on record: male, Sprague-Dawley, rat; for half-life / clearance: iv; for bioavailability: po. How it is done: Male Sprague-Dawley rats, weighing 250-400 g, were obtained from Charles Rivers Laboratories. Pharmacokinetic studies were conducted in three groups of rats; each group contained three animals. All groups were dosed with a solution formulation. The first group of three rats received an intravenous dose, administered under isoflurane anesthetic. The second group received an intraperitoneal dose and the third group received an oral dose, administered by gavage. Sequential blood samples were obtained from a tail vein of each animal for 8-24 hours after dosing. Plasma was separated by centrifugation and stored frozen until analysis.
Half life […] and plasma clearance values are based on intravenous administration (3 micromole/kg).
Half life (t1/2) and plasma clearance values are based on intravenous administration (3 micromole/kg).

Another data set concerns the target T3, rat CB2 (Rattus norvegicus, UniProt Q9QZN9).
T3 sequence (Q9QZN9 1-360): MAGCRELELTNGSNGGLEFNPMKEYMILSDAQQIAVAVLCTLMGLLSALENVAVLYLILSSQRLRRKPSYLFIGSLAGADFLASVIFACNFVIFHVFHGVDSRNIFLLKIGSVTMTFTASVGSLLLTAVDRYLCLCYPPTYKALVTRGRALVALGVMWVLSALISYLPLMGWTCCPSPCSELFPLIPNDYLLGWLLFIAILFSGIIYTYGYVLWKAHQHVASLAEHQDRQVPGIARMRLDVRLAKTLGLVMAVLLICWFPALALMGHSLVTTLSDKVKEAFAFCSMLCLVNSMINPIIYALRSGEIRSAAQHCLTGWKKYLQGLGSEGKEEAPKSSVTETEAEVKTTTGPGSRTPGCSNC
As to the kind of experiment: rat CB2 radioligand binding assay ([3H]CP 55,940 competition). The arrangement: expressed in transfected cells; host or cells: HEK293. As to conditions: HEK293 membranes, 0.5 nM [3H]CP 55,940. A digest of the protocol:
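Membranes (20 μg protein/well) from HEK293 cells stably expressing the receptor were incubated 45 min at 30 °C with 0.5 nM [3H]CP 55,940 and five concentrations of test compound (0.01 nM–10 μM) in Tris/EDTA/MgCl2/BSA buffer, pH 7.4. Bound ligand was measured by GF/C filtration and scintillation counting; 10 μM CP 55,940 defined nonspecific binding.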

Setting [2] is: read-out: Rat CB1 cyclase (EC50).

Where two headings read alike, the source gives them in different places.

For `Cn1c(C(C)(C)C)c/c(=N\C(=O)c2cc(C(F)(F)F)ccc2OCC(C)(C)O)n1CC1CC1` [Example 71, N-[(3E)-5-tert-butyl-2-(cyclopropylmethyl)-1-methyl-1,2-dihydro-3H-pyrazol-3-ylidene]-2-(2-hydroxy-2-methylpropoxy)-5-(trifluoromethyl)benzamide], affinity on human CB2 receptors (human CB2 (Ki, nM)) was put at a Ki of 38 nM. Also, the EC50 at Rat CB1 (Rat CB1 cyclase (EC50, nM)) was found to be 4280 nM. Besides, the half-life in data set [1] (in vivo, 3 micromole/kg) was 4.7 h. In data set [1], this compound had a clearance of 5 mL/min/kg and a bioavailability of 46%. Besides, the Ki at rat CB2 (rat CB2 (Ki, nM)) turned out to be 8.5 nM.
With `Cn1c(C(C)(C)C)c/c(=N\C(=O)c2cc(C(F)(F)F)ccc2OC[C@@H]2CCC(=O)N2)n1CC1CCC1` [Example 120, N-[(3E)-5-tert-butyl-2-(cyclobutylmethyl)-1-methyl-1,2-dihydro-3H-pyrazol-3-ylidene]-2-{[(2S)-5-oxopyrrolidin-2-yl]methoxy}-5-(trifluoromethyl)benzamide], the Ki amounted to 116 nM at human CB2 receptors (read-out: human CB2 (Ki)) and 61 nM on rat CB2 (rat CB2 (Ki, nM)). Further, at Rat CB1 (setting [2]), the EC50 is greater than 27000 nM.
In data set [1] (in vivo, 3 micromole/kg), `CCCCn1/c(=N/C(=O)c2cc(C(F)(F)F)ccc2OCC(C)(C)OC)cc(C(C)(C)C)n1C` [G, reference compound] gave a clearance of 45 mL/min/kg and a half-life of 1.5 h. In data set [1] (in vivo, 10 micromole/kg), this compound registered a bioavailability of 5%.
With `Cn1c(C(C)(C)C)c/c(=N\C(=O)c2cc([N+](=O)[O-])ccc2OCC(C)(C)O)n1C[C@H]1CCCO1` [Example 121, N-{(3E)-5-tert-butyl-1-methyl-2-[(2R)-tetrahydrofuran-2-ylmethyl]-1,2-dihydro-3H-pyrazol-3-ylidene}-2-(2-hydroxy-2-methylpropoxy)-5-nitrobenzamide], the Ki at human CB2 receptors (human CB2 (Ki, nM)) was 13 nM; at rat CB2 (rat CB2 (Ki, nM)), 7.7 nM. The EC50 on Rat CB1 (setting [2]) amounted to 4710 nM.
In the case of `CCCCCn1/c(=N/C(=O)c2cc(C(F)(F)F)ccc2OCC(C)(C)O)cc(C(C)(C)C)n1C` [Example 99, N-[(3E)-5-tert-butyl-1-methyl-2-pentyl-1,2-dihydro-3H-pyrazol-3-ylidene]-2-(2-hydroxy-2-methylpropoxy)-5-(trifluoromethyl)benzamide], the affinity on human CB2 receptors (human CB2 (Ki, nM)) corresponds to a Ki of 9.2 nM. Moreover, the half-life in data set [1] (in vivo, 3 micromole/kg) is 5.6 h. In data set [1], this compound had a clearance of 18.3 mL/min/kg and a bioavailability of 37%. In addition, the affinity on rat CB2 (rat CB2 (Ki, nM)) corresponds to a Ki of 4.4 nM.
Regarding `CCCCn1cc(C(C)(C)C)o/c1=N\C(=O)c1cc(C(F)(F)F)ccc1OC[C@@H]1CCCN1C` [Example 76, N-[(2Z)-3-butyl-5-tert-butyl-1,3-oxazol-2(3H)-ylidene]-2-{[(2S)-1-methylpyrrolidin-2-yl]methoxy}-5-(trifluoromethyl)benzamide], the inhibitory constant (Ki) on human CB2 receptors (read-out: human CB2 (Ki)) amounted to 176 nM; at rat CB2 (read-out: rat CB2 (Ki)) it was 243 nM. On Rat CB1 (setting [2]), the EC50 was found to be 2030 nM.
In data set [1] (in vivo, 3 micromole/kg), `COc1ccc(C(F)(F)F)cc1C(=O)/N=c1\cc(C(C)(C)C)n(C)n1CC1CC1` [F, reference compound] showed a clearance of 63.3 mL/min/kg and a half-life of 2.1 h. The bioavailability in data set [1] (in vivo, 10 micromole/kg) turned out to be 11%.
In the case of `Cn1c(C(C)(C)C)c/c(=N\C(=O)c2cc(C(F)(F)F)ccc2OCC(C)(C)C(=O)O)n1C[C@H]1CCCO1` [Example 124, 3-[2-[({(3E)-5-tert-butyl-1-methyl-2-[(2R)-tetrahydrofuran-2-ylmethyl]-1,2-dihydro-3H-pyrazol-3-ylidene}amino)carbonyl]-4-(trifluoromethyl)phenoxy]-2,2-dimethylpropanoic acid], the Ki was determined as 185 nM at human CB2 receptors (read-out: human CB2 (Ki)) and 43 nM at rat CB2 (rat CB2 (Ki, nM)). Moreover, on Rat CB1 (setting [2]), the EC50 is greater than 27000 nM.
In data set [1] (in vivo, 3 micromole/kg), `CCCCn1/c(=N/C(=O)c2cc(C(F)(F)F)ccc2Cl)cc(C(C)(C)C)n1C` [D, reference compound] had a clearance of 56.7 mL/min/kg and a half-life of 0.3 h. Moreover, the bioavailability in data set [1] (in vivo, 10 micromole/kg) was determined as 10%.
The like results for `CCCCn1/c(=N/C(=O)c2cc(Cl)ccc2OC)cc(C(C)(C)C)n1C` [B, reference compound] were, in that order, 40 mL/min/kg, 1.7 h and 11%.
The like results for `Cn1c(C(C)(C)C)c/c(=N\C(=O)c2cccc(C(F)(F)F)c2F)n1CC1CC1` [A, reference compound] were, in that order, 10 mL/min/kg, 0.7 h and 26%.
Turning to `C[C@@H](O)[C@@H](C)Oc1ccc(C(F)(F)F)cc1C(=O)/N=c1\cc(C(C)(C)C)n(C)n1C[C@H]1CCCO1` [Example 104, N-{(3E)-5-tert-butyl-1-methyl-2-[(2R)-tetrahydrofuran-2-ylmethyl]-1,2-dihydro-3 H-pyrazol-3-ylidene}-2-{[(1R,2R)-2-hydroxy-1-methylpropyl]oxy}-5-(trifluoromethyl)benzamide], the inhibition constant Ki is greater than 1000 nM on human CB2 receptors (read-out: human CB2 (Ki)) and 317 nM on rat CB2 (read-out: rat CB2 (Ki)).
With `Cn1c(C(C)(C)C)c/c(=N\C(=O)c2cc(C(F)(F)F)ccc2OCC(C)(C)O)n1CC1CCCC1` [Example 106, N-[(3E)-5-tert-butyl-2-(cyclopentylmethyl)-1-methyl-1,2-dihydro-3H-pyrazol-3-ylidene]-2-(2-hydroxy-2-methylpropoxy)-5-(trifluoromethyl)benzamide], the Ki on human CB2 receptors (human CB2 (Ki, nM)) was determined as 6.6 nM; on rat CB2 (rat CB2 (Ki, nM)), 8.7 nM.
For `Cn1c(C(C)(C)C)c/c(=N\C(=O)c2cc(C(F)(F)F)ccc2OCC2CN(S(C)(=O)=O)C2)n1C[C@H]1CCCO1` [Example 54, N-{(3E)-5-tert-butyl-1-methyl-2-[(2R)-tetrahydrofuran-2-ylmethyl]-1,2-dihydro-3H-pyrazol-3-ylidene}-2-{[1-(methylsulfonyl)azetidin-3-yl]methoxy}-5-(trifluoromethyl)benzamide], the Ki came to 192 nM on human CB2 receptors (read-out: human CB2 (Ki)) and 71 nM at rat CB2 (rat CB2 (Ki, nM)).
Turning to `CC(C)Cn1/c(=N/C(=O)c2cccc(C(F)(F)F)c2F)cc(C(C)(C)C)n1C` [C, reference compound], in data set [1] (in vivo, 3 micromole/kg), the clearance is 26.7 mL/min/kg and the half-life is 0.8 h. This compound also gave a bioavailability in data set [1] (in vivo, 10 micromole/kg) of 45%.
As to `CCCCn1/c(=N/C(=O)c2cc(C(F)(F)F)ccc2SCC(C)O)cc(C(C)(C)C)n1C` (centres unmarked) [Example 136, N-[(3E)-2-butyl-5-tert-butyl-1-methyl-1,2-dihydro-3H-pyrazol-3-ylidene]-2-[(2-hydroxypropyl)thio]-5-(trifluoromethyl)benzamide], the Ki stood at 44 nM on human CB2 receptors (human CB2 (Ki, nM)) and 16 nM on rat CB2 (rat CB2 (Ki, nM)).
On to `CCC(C)(O)COc1ccc(C(F)(F)F)cc1C(=O)/N=c1\cc(C(C)(C)C)n(C)n1C[C@H]1CCCO1` (stereo partly drawn) [Example 110, N-{(3E)-5-tert-butyl-1-methyl-2-[(2R)-tetrahydrofuran-2-ylmethyl]-1,2-dihydro-3H-pyrazol-3-ylidene}-2-(2-hydroxy-2-methylbutoxy)-5-(trifluoromethyl)benzamide], for which the Ki was determined as 3.5 nM on human CB2 receptors (human CB2 (Ki, nM)) and 1.6 nM on rat CB2 (rat CB2 (Ki, nM)).
Consider `CCCCn1/c(=N/C(=O)c2cc(C(F)(F)F)ccc2OC)cc(C(C)(C)C)n1C` [E, reference compound], for which, in data set [1] (in vivo, 3 micromole/kg), the clearance was 33.3 mL/min/kg and the half-life is 2.9 h. In addition, in data set [1] (in vivo, 10 micromole/kg), the bioavailability amounted to 9%.
In the case of `Cn1c(C(C)(C)C)c/c(=N\C(=O)c2cc(C(F)(F)F)ccc2OC[C@@H](O)C(C)(C)C)n1C[C@H]1CCCO1` [Example 112, N-{(3E)-5-tert-butyl-1-methyl-2-[(2R)-tetrahydrofuran-2-ylmethyl]-1,2-dihydro-3H-pyrazol-3-ylidene}-2-{[(2S)-2-hydroxy-3,3-dimethylbutyl]oxy}-5-(trifluoromethyl)benzamide], the Ki on human CB2 receptors (human CB2 (Ki, nM)) was determined as 6.7 nM; on rat CB2 (rat CB2 (Ki, nM)) it was 1.9 nM.
